Laboratory results taken from US10905700B2, “Chemoprevention of colorectal cancer” (SOFAR SPA, priority 2012, dated 2021).

Assays:
Format in all cases: cell-based
[1] = system: colorectal adenocarcinoma cell line CaCo2; test: Growth curve (cell count) of cell line CaCo2 treated with 5-ASA and ASA; conditions: CaCo2, 96 hours; for cellularity "fold change" value / mortality / survival of treated cells: concentration of 20 mM of the analysed drugs
Protocol: (§1) The cell lines CaCo2 and HT29 of colorectal adenocarcinoma obtained from the ATCC (Rockville, Md., USA) were grown in a DMEM culture medium (Euroclone, Devon, UK), to which were added 10% foetal bovine serum (Lonza, Walkersville, Md., USA) inactivated at heat and 1 mM of L-glutamine (Euroclone). The 5-aminosalicylic acid (5-ASA, SOFAR S.p.A., Milan, Italy) and acetylsalicylic acid (ASA, Sigma Aldrich, St Louise, Mo., USA) were dissolved in a culture medium in a concentration of respectively 20 and 10 mM. The vitamin D3 (VD3) (1 alpha, 25 dihydroxyvitamin D3, calcitriol, Sigma Aldrich) was diluted in the culture medium at a concentration of 10^−7 M. For the experiments conducted with the cell line HT29, 300,000 cells were sown for each sample and 5-ASA, vitamin D3 or the combination of 5-ASA and VD3 were added to each well. For the experiments conducted with the cell line CaCo2, on the other hand, 300,000 cells were again sown for each sample, but adding 5-ASA or ASA to each well. The treated cells were then subjected to a cell count every 24 hours to monitor the anti-proliferation effect of the different stimuli. After 96 hours of treatment all the cells were collected, resorbed and the RNA was extracted by means of the “Qiagen total RNA purification kit” following the manufacturer's instructions (Qiagen, Valencia, Calif.). The integrity and concentration of the RNA were tested using the Bio-Analyzer technique (Applied Biosystem, Foster City, Calif.). 100 ng total of RNA were then retrotranscribed using the High Capacity cDNA Archive Kit (Applied Biosystems) on the basis of the instructions provided by the manufacturer. The QRT-PCR was then carried out with an ABI PRISM 7900 (Applied Biosystems) sequence detecting system for quantifying the relative levels of mRNA measured in the various samples. The triggers and probes for amplifying the mRNA of the μ-protocadherin, E-cadherin, p21^waf-1, KLF4 and glyceraldehyde 3-phosphate dehydrogenase (GAPDH) were devised by Applied Biosystems. Each sample of cDNA was processed in triplicate in 50 μl of reaction volume using the Taqman Universal PCR Master Mix (Applied Biosystems). Thermal cyclisation was started with initial denaturation at 50° C. for 2 minutes and at 90° C. for 10 minutes followed by 40 cycles of 15 seconds at 95° C. and 1 minute at 60° C. The QRT-PCR signals were evacuated using the corresponding quantification method ΔΔCt (Livak K J, Schmittgen T D. Relative gene expression data were analysed using real-time quantitative PCR and the 2(-Delta Delta C(T)) Method. Methods 2001; 25(4):402-8). This procedure calculates the relative difference in gene expression of the target gene normalised on the endogen control (GAPDH) and compared with a calibrating sample. The values obtained were expressed as a relative quantity (RQ) of the variation in the messenger levels.
In order to characterise further the profile of efficacy and safety associated with the chemopreventive properties of 5-ASA, a series of experiments was conducted of the same type as the series explained previously, in which a comparative analysis was conducted of the biological effects determined on cancer colonocytes following treatment with 5-ASA and with aspirin (ASA), i.e. the main drug of the family of NSAIDs. […]

[2] = system: μ-protocadherin, E-cadherin, p21^waf1 and KLF4 messenger expression in CaCo2 cells; test: QRT-PCR analysis of mRNA of β-catenin signal pathway genes in CaCo2 cells; conditions: CaCo2, 96 hours; 5-ASA 20 mM, ASA 10 mM
Protocol: as §1
On the samples taken from these cell cultures and from other cultures used as a control, the levels of messenger RNA of the genes listed in the previous paragraph (see FIG. 2) was determined by Quantitative Real Time RT-PCR. The obtained results have shown that the messenger expression of the μ-protocadherin, E-cadherin, p21^waf1 and KLF4 genes were induced respectively 3.8, 2.4, 8.0 and 5.5 times after treatment with 5-ASA 20 mM (FIG. 4), confirming the data previously observed on the cell line HT29. […] This datum is not surprising, considering the redundancy and heterogeneity that characterise molecular regulation of the gene p21^waf1, the expression of which is not only regulated by the proliferation signalling pathway of the β chain, explored in our experimental conditions through the evaluation of the codifying genes for μ-protocadherin, E-cadherin and KLF4, but also by numerous signalling pathways.

[3] = system: μ-protocadherin, E-cadherin, p21^waf1 and KLF4 messenger expression in HT29 cells; test: QRT-PCR analysis of mRNA of genes regulating proliferation, differentiation and apoptosis in HT29 cells; conditions: HT29, 96 hours; 5-ASA 20 mM, VD3 10^-7 M, alone or combined; RQ vs calibrator, normalised on GAPDH
Protocol: The cell lines CaCo2 and HT29 of colorectal adenocarcinoma obtained from the ATCC (Rockville, Md., USA) were grown in a DMEM culture medium (Euroclone, Devon, UK), to which were added 10% foetal bovine serum (Lonza, Walkersville, Md., USA) inactivated at heat and 1 mM of L-glutamine (Euroclone). The 5-aminosalicylic acid (5-ASA, SOFAR S.p.A., Milan, Italy) and acetylsalicylic acid (ASA, Sigma Aldrich, St Louise, Mo., USA) were dissolved in a culture medium in a concentration of respectively 20 and 10 mM. The vitamin D3 (VD3) (1 alpha, 25 dihydroxyvitamin D3, calcitriol, Sigma Aldrich) was diluted in the culture medium at a concentration of 10^-7 M. For the experiments conducted with the cell line HT29, 300,000 cells were sown for each sample and 5-ASA, vitamin D3 or the combination of 5-ASA and VD3 were added to each well. For the experiments conducted with the cell line CaCo2, on the other hand, 300,000 cells were again sown for each sample, but adding 5-ASA or ASA to each well. The treated cells were then subjected to a cell count every 24 hours to monitor the anti-proliferation effect of the different stimuli. After 96 hours of treatment all the cells were collected, resorbed and the RNA was extracted by means of the “Qiagen total RNA purification kit” following the manufacturer's instructions (Qiagen, Valencia, Calif.). The integrity and concentration of the RNA were tested using the Bio-Analyzer technique (Applied Biosystem, Foster City, Calif.). 100 ng total of RNA were then retrotranscribed using the High Capacity cDNA Archive Kit (Applied Biosystems) on the basis of the instructions provided by the manufacturer. The QRT-PCR was then carried out with an ABI PRISM 7900 (Applied Biosystems) sequence detecting system for quantifying the relative levels of mRNA measured in the various samples. The triggers and probes for amplifying the mRNA of the μ-protocadherin, E-cadherin, p21^waf-1, KLF4 and glyceraldehyde 3-phosphate dehydrogenase (GAPDH) were devised by Applied Biosystems. Each sample of cDNA was processed in triplicate in 50 μl of reaction volume using the Taqman Universal PCR Master Mix (Applied Biosystems). Thermal cyclisation was started with initial denaturation at 50° C. for 2 minutes and at 90° C. for 10 minutes followed by 40 cycles of 15 seconds at 95° C. and 1 minute at 60° C. The QRT-PCR signals were evacuated using the corresponding quantification method ΔΔ[…]. Relative gene expression data were analysed using real-time quantitative PCR and the 2(-Delta Delta C(T)) Method. Methods 2001; 25(4):402-8). This procedure calculates the relative difference in gene expression of the target gene normalised on the endogen control (GAPDH) and compared with a calibrating sample. The values obtained were expressed as a relative quantity (RQ) of the variation in the messenger levels. In order to check at the molecular level the effects determined on the cell line HT29 by the association 5-ASA/VD3, “Real Time”, quantitative RT-PCR was used to analyse the expression of a series of genes the protein products of which are involved in the regulation of the proliferation, differentiation and apoptosis of cancer colonocytes such as μ-protocadherin, E-cadherin, p21^waf1 and KLF4. This analysis was conducted on cell cultures subjected to 96 hours of treatment with the studied drugs, which were used in the previously disclosed concentrations.

[4] = system: colorectal adenocarcinoma cell line HT29; test: Growth curve (cell count every 24 hours) of cell line HT29; conditions: HT29, 96 hours of stimulation; 5-ASA 20 mM, VD3 10^-7 M, alone or combined; control 14 expansions
Protocol: The cell lines CaCo2 and HT29 of colorectal adenocarcinoma obtained from the ATCC (Rockville, Md., USA) were grown in a DMEM culture medium (Euroclone, Devon, UK), to which were added 10% foetal bovine serum (Lonza, Walkersville, Md., USA) inactivated at heat and 1 mM of L-glutamine (Euroclone). The 5-aminosalicylic acid (5-ASA, SOFAR S.p.A., Milan, Italy) and acetylsalicylic acid (ASA, Sigma Aldrich, St Louise, Mo., USA) were dissolved in a culture medium in a concentration of respectively 20 and 10 mM. […] The QRT-PCR was then carried out with an ABI PRISM 7900 (Applied Biosystems) sequence detecting system for quantifying the relative levels of mRNA measured in the various samples. […] The QRT-PCR signals were evacuated using the corresponding quantification method ΔΔ[…]. Relative gene expression data were analysed using real-time quantitative PCR and the 2(-Delta Delta C(T)) Method. […] The values obtained were expressed as a relative quantity (RQ) of the variation in the messenger levels. The colorectal adenocarcinoma cell line HT29, which was chosen for its responsiveness to the VD3 deriving from the corresponding VDR receptor, was subjected to “in vitro” treatment with 5-ASA 20 mM and VD3 10^-7 M, used individually and in association, in order to quantify the antiproliferative effect determined by the compounds analysed on cancerous colonocytes. […]

Nc1ccc(O)c(C(=O)O)c1 [5-ASA, 5-aminosalicylic acid]
cellularity "fold change" value [1]: 1 | mortality / survival of treated cells [1]: all the cells treated with 5-ASA survive | induction of messenger expression of E-cadherin [2]: 2.4 times | induction of messenger expression of KLF4 [2]: 5.5 times | induction of messenger expression of p21^waf1 [2]: 8.0 times | induction of messenger expression of μ-protocadherin [2]: 3.8 times | increase in messenger expression of E-cadherin [3]: 2.2 times | increase in messenger expression of KLF-4 [3]: 2.2 times | increase in messenger expression of p21 [3]: 2.9 times | increase in messenger expression of μ-protocadherin [3]: 2.5 times | number of cell expansions compared with the initial number of cells [4]: 8 expansions

CC(=O)Oc1ccccc1C(=O)O [ASA, acetylsalicylic acid]
cellularity "fold change" value [1]: 0.2 | mortality / survival of treated cells [1]: 80% | antiproliferative effect of ASA 10 mM compared with 5-ASA 20 mM ([1]; 10 mM ASA vs 20 mM 5-ASA (equivalents)): absolutely superimposable antiproliferative effect | induction of messenger expression of E-cadherin [2]: does not, on the other hand, induce | induction of messenger expression of KLF4 [2]: does not, on the other hand, induce | induction of messenger expression of p21^waf1 [2]: 5.8 times | induction of messenger expression of μ-protocadherin [2]: does not, on the other hand, induce

C=C1/C(=C\C=C2/CCC[C@]3(C)[C@@H]([C@H](C)CCCC(C)(C)O)CC[C@@H]23)C[C@@H](O)C[C@@H]1O [VD3, 1 alpha, 25 dihydroxyvitamin D3]
increase in messenger expression of E-cadherin [3]: 1.7 times | increase in messenger expression of KLF-4 [3]: 1.6 times | increase in messenger expression of p21 [3]: 1.5 times | increase in messenger expression of μ-protocadherin [3]: 1 times | number of cell expansions compared with the initial number of cells [4]: 10 expansions
